This is an account of results in patent US20230304064A1, “AUTOMATED, DIGITAL DISPENSING PLATFORM FOR MICRODILUTION ANTIMICROBIAL SUSCEPTIBILITY TESTING” (priority 2016, published 2023).

Assay [1] has as its system 4 bacterial screening strains (BIDMC 4, BIDMC 5, BIDMC 12A, and BIDMC 15). Description: Checkerboard synergy testing screen (FICI-MIN). It counts as cell-based, Klebsiella pneumoniae; Escherichia coli. The conditions noted are these: range over strains; read-out: MICs of the strains.
The test system of assay [2] is carbapenem-resistant Klebsiella pneumoniae clinical isolates (blaKPC). Description: DDM (digital dispensing method) MIC testing of CRE isolates. It is filed as cell-based. The conditions noted are these: for MIC: Klebsiella pneumoniae, read-out: DDM modal MICs. The protocol:
(§1) Bacterial strains: The 10 de-identified CRE clinical isolates used in the study were collected at our institution under Institutional Review Board-approved protocols and were sequenced through the carbapenem-resistant Enterobacteriaceae genome initiative at the Broad Institute (Cambridge, MA). All contained a Klebsiella pneumoniae carbapenemase (blaKPC) gene and were colony-purified, minimally passaged, and stored at -80° C. prior to use in this study.
(§2) After incubation, bacterial growth was quantified by measurement of OD600 using an Epoch (BioTek, Winooski, VT) or Spark 10 M microplate reader (Tecan, Morrisville, NC). An OD600 reading of 0.08 or greater (approximately twice typical background readings in wells containing broth alone) was considered indicative of bacterial growth (as also appreciable by visual assessment).
(§3) Precision and accuracy. […] Modal DDM MICs were calculated by taking the mode of all DDM MIC measurements obtained for a given antibiotic-strain combination, inclusive of initial MIC titrations and single-antibiotic rows/columns in synergy arrays (Table 5).

In assay [3] the test system is carbapenem-resistant Escherichia coli clinical isolates (blaKPC). The description is as above. It counts as cell-based. To be noted: Escherichia coli, read-out: DDM modal MICs. On the procedure:
as §1, §2, §3

Assay [4] deals with E. coli ATCC 25922. In words: Microscopy-based AST (MAST): cell morphology at the MIC.
Experimental: Briefly, antibiotics are added to solidified microwell surfaces which are subsequently inoculated with 200 nL of a standardized bacterial suspension. Both antibiotic and bacterial cell dispensing are performed using the HP D300 system. Following incubation at 35±2° C., plates are imaged on a Zeiss Cell Observer microscope operating in brightfield mode with a 40X long working distance objective. The microscope is equipped with an automated stage. […] The z-position of the poloxamer surface in the first well is set manually after which the software directs the stage to each subsequent well, collecting a z-series (20 slices at 2 µM per slice with the center of the z-series defined by the microscope’s autofocus feature) with no further operator intervention. Z-series are collapsed using the Extended Depth of Focus feature in the Zeiss Zen Blue software and saved as individual images.
Microscopy-based AST (MAST). […] Two-hundred nL of bacteria in NaCl-P20 suspended at a density of 0.1 McFarland were then delivered to the center of each well by digital dispensing. Immediately after inoculation, plates were incubated at 35±2° C. for 2 hours, and held at room temperature for 2 hours during transport and imaging.
Plates were imaged with a Zeiss Cell Observer microscope with settings described in the “quantification of bacterial dispensing” section. Following manual selection of the z-position for the first well in the series, the microscope stage independently advanced to subsequent wells based on a plate map with the z-position updated automatically using the autofocus feature of the microscope control software (Zeiss Zen Blue software version 2.1 and 2.3). For each well, a z-series of 40 µm (step size = 2 µm) was automatically collected and projected to form a single image using the extended depth of focus module in the Zeiss Zen Blue software (version 2.1 and 2.3). […]
Assay [5] has as its system 14 Enterobacteriaceae strains presumptively expressing extended spectrum beta-lactamase enzymes. In words: Inoculum effect by digitally dispensed checkerboard of bacteria and antibiotic. It counts as cell-based. The conditions noted are these: inkjet printing method, inoculum above/below CLSI-recommended. The text has this:
Inoculum effect experiments comprise a series of broth microdilution experiments in which the cell density of the bacterial inoculum is varied (often 10-fold) across multiple identical doubling dilutions of antibiotics. The MICs are then interpreted at each inoculum concentration.
There is currently no practical way to test for an inoculum effect within the workflow of a clinical laboratory, as such testing would require a highly laborious manual process of testing different inoculum levels with several potential antimicrobials. […] By varying the droplet size during digital printing of a bacterial suspension as described in the preceding section, a desired inoculum of bacteria can be added to each testing well. More specifically, doubling dilutions of bacterial inocula can be performed if desired, thereby establishing the relationship between inoculum and MIC through an inoculum dose-response curve.
We investigated the inoculum effect for cefepime (a fourth generation cephalosporin) on 14 Enterobacteriaceae strains presumptively expressing extended spectrum beta-lactamase enzymes based on third generation cephalosporin resistance. Bacteria and antibiotics were both dispensed as orthogonal, combinatorial two-fold dilution series using our digital dispensing method to create a checkerboard array. […]

Assay [6] relates to KPC-producing CRE K. pneumoniae strains. Description: Checkerboard synergy, spectrum of activity evaluation. It counts as cell-based, Klebsiella pneumoniae. The conditions noted are these: strain BIDMC 18A.
Experimental: Spectrum of activity evaluation. […] Each selected combination was tested in duplicate on separate days against the 10 clinical KPC-producing CRE strains (5 K. pneumoniae and 5 E. coli) listed in Table 5, including the original 4 used in the synergy testing screen.
Assay [7] has as its system P. mirabilis ATCC 702. In words: MIC testing by broth microdilution and D300 digital dispensing (precision study). To be noted: precision study, EUCAST criteria.
In assay [8] the test system is E. cloacae ATCC 13047. The description is as above. The conditions noted are these: EUCAST criteria. It counts as cell-based, Enterobacter cloacae.
The test system of assay [9] is carbapenem-resistant Enterobacteriaceae. The conditions noted are these: cited from earlier work.
Assay [10] has as its system eighty de-identified Enterobacteriaceae clinical isolates. In words: organism not typed. It counts as cell-based. To be noted: for Non-susceptible strains (%) / Non-susceptible strains n: eighty clinical isolates, reference microdilution, CLSI criteria, EUCAST for colistin. On the procedure:
K. pneumonia BIDMC12A is a previously described, carbapenem resistant clinical isolate (14) expressing a KPC-3 carbapenemase. The eighty de-identified Enterobacteriaceae clinical isolates (Table 1) used for verification studies were collected at our institution under IRB-approved protocols. All strains were minimally passaged and stored at -80° C. prior to use in this study.
Verification study: Digital dispensing and reference method testing were performed in parallel using the same inoculum preparation. Microdilution reference panels were pre-prepared and stored at -80° C. until use (less than 2 weeks). D300 test method panels were prepared fresh each day of use.
Accuracy was evaluated using established guidelines (16, 17). The MIC determined by the digital dispensing method was compared with the MIC determined by the broth microdilution reference method. Essential agreement, overall essential agreement, and categorical agreement were evaluated as described in the precision study.

Assay [11] has as its system Klebsiella pneumoniae strains expressing extended spectrum β-lactamases. The conditions noted are these: cited from earlier work.
Assay [12] has the same test system. To be noted: cited from earlier work. This is another data set of the same source.

Converted amounts (≈) assume the structure as drawn. Where two headings read alike, the source gives them in different places.

For `C[C@@H](O)[C@H]1C(=O)N2C(C(=O)O)=C(S[C@@H]3CN[C@H](C(=O)Nc4cccc(C(=O)O)c4)C3)[C@H](C)[C@H]12` [ETP, ertapenem], the MIC in [1] is 8 to 64 µg/mL; in assay [2] (BIDMC 4, KPN, KPC type 3), 32 µg/mL; in assay [2] (BIDMC 5, KPN, KPC type 3) it was 16 µg/mL; in assay [2] (BIDMC 10, KPN, KPC type 3), 16 µg/mL; in assay [2] (BIDMC 12A, KPN, KPC type 3), 32 µg/mL; in [2] (BIDMC 18A, KPN, KPC type 2), 64 µg/mL. In addition, the MIC is 8 µg/mL in assay [3] (BIDMC 6, ECO, KPC type 2); 8 µg/mL in [3] (BIDMC 9, ECO, KPC type 2); 32 µg/mL in assay [3] (BIDMC 15, ECO, KPC type 2); 8 µg/mL in assay [3] (BIDMC 17A, ECO, KPC type 2); 4 µg/mL in [3] (BIDMC 20A, ECO, KPC type 3).
`CO/N=C(\C(=O)N[C@@H]1C(=O)N2C(C(=O)[O-])=C(C[N+]3(C)CCCC3)CS[C@H]12)c1csc(N)n1` [FEP, cefepime]: the “cell morphology at the MIC” value in assay [4] (MAST, 2-hour incubation) was “filamented bacteria with a pronounced central bulge”. The MIC was 64 µg/mL in assay [2] (BIDMC 4, KPN, KPC type 3); 16 µg/mL in [2] (BIDMC 5, KPN, KPC type 3); 16 µg/mL in assay [2] (BIDMC 10, KPN, KPC type 3); 16 µg/mL in assay [2] (BIDMC 12A, KPN, KPC type 3); 8 µg/mL in assay [3] (BIDMC 6, ECO, KPC type 2); 32 µg/mL in [3] (BIDMC 9, ECO, KPC type 2). Moreover, the MIC in assay [3] (BIDMC 15, ECO, KPC type 2) came out at 4 µg/mL; in [3] (BIDMC 17A, ECO, KPC type 2) it was 4 µg/mL; in [3] (BIDMC 20A, ECO, KPC type 3), 8 µg/mL. The inoculum effect entry in assay [5] was “pronounced”.
On to Colistin [Colistin (CL)], for which the MIC in assay [6] was > 128 µg/mL. The categorical susceptibility result in [7] and in assay [8] was “resistance” in each case. Also, in [9], the “share of carbapenem-resistant Enterobacteriaceae against which the drug is effective” value is listed as > 85%. For the same compound, the “Non-susceptible strains (%)” value in [10] is on record as 21.5%. In [10], this compound gave a Non-susceptible strains n of 17. Also, the “DDM modal MICs” value in assay [2] (BIDMC 5, KPN, KPC type 3) was 0.5 mg/L.
Turning to `C[C@@H](O)[C@H]1C(=O)N2C(C(=O)O)=C(S[C@@H]3CN[C@H](C(=O)N(C)C)C3)[C@H](C)[C@H]12` [Meropenem (MEM), Meropenem], the “cell morphology at the MIC” value in [4] (E. coli after 2 hours, FIG. 13) is “swelling”; in [4] (MAST, 2-hour incubation), “rounded sphereoplasts”. In addition, in [11], the “in vitro inoculum effect” value is listed as “insignificant inoculum effect”. The “survival of infected mice after treatment” value in assay [12] (high dose inoculum) and in assay [12] (low bacterial inoculum) was “survived” in each case. The “Non-susceptible strains (%)” value in [10] worked out at 17.5%. Also, in [10], the Non-susceptible strains n is given as 14. For the same compound, the MIC in assay [10] (read-out: modal MIC) came to 0.03 µg/mL (≈ 0.0782 µM); in [2] (BIDMC 4, KPN, KPC type 3), 32 µg/mL; in assay [2] (BIDMC 5, KPN, KPC type 3), 8 µg/mL; in [2] (BIDMC 10, KPN, KPC type 3) it was 4 µg/mL; in [2] (BIDMC 12A, KPN, KPC type 3), 8 µg/mL; in [2] (BIDMC 18A, KPN, KPC type 2) it was 32 µg/mL. The MIC is 2 µg/mL in assay [3] (BIDMC 6, ECO, KPC type 2); 4 µg/mL in [3] (BIDMC 9, ECO, KPC type 2); 4 µg/mL in assay [3] (BIDMC 15, ECO, KPC type 2); 2 µg/mL in [3] (BIDMC 17A, ECO, KPC type 2); 1 µg/mL in [3] (BIDMC 20A, ECO, KPC type 3).
